One assay has as its system U937 cell line. Nature of the assay: MTT assay, U937. The format is cell-based. Particulars: U973 monocytic leukemia cell line. How it is done:
FIG. 6. Viral and cellular responses to K-Rta peptide; identification of VGN50. (a) Protein sequence alignment. FIG. 6(A) The effect of VGN50 on various cancer cell types. MTT assays were performed with the indicated cell lines treated with various VGN50 concentrations. The O.D. of mock-treated samples were set as 100%, and O.D. from detergent treated cells were set as 0%. Percentage viability+/−SD was calculated for each treatment (N=3 samples/treatment). FIG. 6(B) Viability assay with flow cytometry. Cell viability was measured in triplicate with live/dead staining and the cell killing effects on cancer cells was compared with normal peripheral blood mononuclear cells (PBMC) from three healthy donors. Results are presented as percentage viability+/−SD deviation (N=3 samples/group).
As shown in FIG. 6(a), multiple cancer cell lines were used for MTT assay to evaluate cancer cell killing efficacies of the MBK50 peptide at different concentrations (cell variability studies). […] Importantly, human peripheral blood mononuclear cells (PBMCs) from healthy donors were approximately 10-fold less sensitive to MBK-mediated killing compared to myeloid and lymphoid cancer cell lines (e.g., THP-1 and BCBL-1) as assessed by flow cytometry after live/dead staining (FIG. 6(b)). […]

A further assay concerns activated CD3 T cells. Nature of the assay: Cytokine production by anti-CD3 stimulated PBMCs (Luminex 10 plex). The format is cell-based, human. Particulars: 32 μM, 48 hours, vs untreated and control peptide-treated cultures. How it is done: The effect of the peptide on cytokine production by human lymphoctyes were studied by an in vitro culture system. PBMCs were stimulated with anti-CD3 antibody in the presence of PBS, MBK50 (32 μM) or Mutant peptide (32 μM) in duplicates for 48 hours. The supernatant was recovered and assayed for 10 common cytokines 4-1(3, IL-2, IL-4, IL-5, IL-6, IL-8, IL-10, GM-CSF, IFNγ, TNFα) with Luminex using human 10 plex beads assay kit (Invitrogen).

The subject of the next assay is CD14+ monocytes. Nature of the assay: CD14+ monocyte live/dead staining. It is filed as cell-based. Particulars: 16 or 32 μM, 2 days; PBS, LPS, polyIC conditions; vs control peptide or PBS. How it is done: FIG. 13. Effect of MBK50 on CD14+ monocytes. FIG. 13(a) A scheme of the experimental procedure. CD14+ monocytes were prepared with magnetic beads from the PBMC of healthy donors. Cells were washed and cultured at 1×10^6/ml in a 96 well plate (200 μl/well in triplicates) without or with LPS (100 ng/ml) or poly I:C (10 μg/ml) in the presence of MBK (16 or 32 μM) or mutant peptide (32 μM) for 2 days. Live cells were determined using live/dead staining followed by flow cytometry analysis. FIG. 13(b) A representative flow profile with the gating strategy for live cells is shown. FIG. 13(c) Averages percentage of live cells for each culture condition are shown. **p<0.01, ***p<0.001, ****p<0.0001
Monocytic cells are important antigen-presenting cells bridging innate and antigen-specific immune responses. To evaluate the effect of MBK on monocytic cells, CD14+ monocytes were prepared with magnetic beads from the PBMC of healthy donors. Cells were washed and cultured at 1×10^6/ml in a 96 well plate (200 μl/well in triplicates) without or with LPS (100 ng/ml) or poly I:C (10 μg/ml) in the presence of MBK (16 or 32 μM) or mutant peptide (32 μM) for 2 days. Live cells were determined using live/dead staining, followed by flow cytometry analysis.

The test system of the next assay is SWI/SNF components. Nature of the assay: ELISA-based binding assay with purified SWI/SNF components. Particulars: biotin-conjugated peptide, HRP-streptavidin detection. The source says:
FIG. 17(a) SDS-PAGE analysis of five SWI/SNF components individually prepared from baculovirus infected Sf9 cells. FIG. 17(b) A schematic illustration of ELISA assay to evaluate VGN50 and SWI/SNF interaction. FIG. 17(c) Analysis of VGN50 binding to SWI/SNF components by ELISA. Peptide binding measured as OD values at 450 nm are shown. Mean OD values were compared between the VGN50 and Mut-P in each concentration using unpaired t-test. **p<0.01, *p<0.05, NS: no significance. Data are presented as mean±SD.
To confirm the basis of VGN50 (a.k.a. MBK50) mechanism of action, the biochemical interaction between VGN50 and SWI/SNF proteins (i.e., VGN50 target molecules), were examined by ELISA-based binding assays using purified 5 individual SWI/SNF components prepared from baculovirus-infected Sf9 cells (FIG. 17a). Increasing concentrations of biotin-conjugated VGN50 or Mut-P were incubated in an ELISA plate coated with each SWI/SNF component, and the bound peptides were detected by HRP-streptavidin (FIG. 17b).

Take LSSILQGLYQLDT [MBK50]: the “sensitivity to cell killing” value in the assay with U937 cell line is reported as “sensitive”. Moreover, the “cytokine levels in supernatant, all detected except IL-10 and TNFα” value with activated CD3 T cells is “significantly reduced”. Moreover, the “percentage of live cells” value in the assay with CD14+ monocytes is given as “significantly reduced”. Also, the “lowest concentration at which peptide bound the 5 SWI/SNF components” value with SWI/SNF components was 50 nM.
